SMILES strings stand for the structures.

For the experiment, the system named is co-culture of keratinocytes and melanocytes. Briefly: Depigmenting activity: inhibition of melanogenesis in co-culture of keratinocytes and melanocytes. The following applies: for IC50: keratinocyte/melanocyte co-culture, read-out: IC50 (50% inhibition of melanogenesis). Type of experiment: cell-based. The protocol:
This test corresponds to the one described in patent FR 2,734,825 filed by the Applicant, as well as in the article by R. Schmidt, P. […], Anal. Biochem., 235(2), 113-18, (1996), the entire contents of each of which are hereby incorporated by reference. […] For each test compound, the IC50 value, which corresponds to the micromolar concentration (μM) for which a 50% inhibition of melanogenesis is observed, is determined. Moreover, a class is given to each of these compounds as regards their maximum depigmenting activity: […]

The IC50 is the concentration needed to halve the response being measured. As for `CCOC(=O)C(=O)Nc1ccc(O)cc1` [Example 1, Ethyl N-(4-hydroxyphenyl)oxamate], the IC50 was found to be 10 µM. Also, the “Class (maximum depigmenting activity)” value (at 50 μM) was 3 (60 to 100% inhibition of melanogenesis relative to the control (same experiment without test compound)).
As to `O=C(NC[C@H](O)[C@@H](O)[C@H](O)[C@H](O)CO)C(=O)Nc1ccc(O)cc1` [Example 2, N-(4-hydroxyphenyl)-N'-(D-glucamino)oxamide], the half-maximal inhibitory concentration (IC50) was found to be 10 µM. For the same compound, under “at 10 μM”, the “Class (maximum depigmenting activity)” value is reported as 2 (30 to 60% inhibition of melanogenesis relative to the control (same experiment without test compound)).
For `O=c1cc(CO)occ1O` [Kojic acid, reference compound], the IC50 was 500 µM. The “Class (maximum depigmenting activity)” value (at 500 μM) is recorded as 2 (30 to 60% inhibition of melanogenesis relative to the control (same experiment without test compound)).

The values are drawn from patent US6326014A, “Use of oxamate derivatives as depigmenting agents” (L, Oreal, priority 1997, dated 2001).
